Test results published in US20250230154A1, “COMPOUND HAVING SHP2 PROTEIN DEGRADING ACTIVITY, AND MEDICAL USES THEREOF” (UBIX THERAPEUTICS, INC., priority 2021, published 2025).

Target: T1, SHP2 protein (Homo sapiens, UniProt Q06124)
T1 sequence (Q06124 1-593): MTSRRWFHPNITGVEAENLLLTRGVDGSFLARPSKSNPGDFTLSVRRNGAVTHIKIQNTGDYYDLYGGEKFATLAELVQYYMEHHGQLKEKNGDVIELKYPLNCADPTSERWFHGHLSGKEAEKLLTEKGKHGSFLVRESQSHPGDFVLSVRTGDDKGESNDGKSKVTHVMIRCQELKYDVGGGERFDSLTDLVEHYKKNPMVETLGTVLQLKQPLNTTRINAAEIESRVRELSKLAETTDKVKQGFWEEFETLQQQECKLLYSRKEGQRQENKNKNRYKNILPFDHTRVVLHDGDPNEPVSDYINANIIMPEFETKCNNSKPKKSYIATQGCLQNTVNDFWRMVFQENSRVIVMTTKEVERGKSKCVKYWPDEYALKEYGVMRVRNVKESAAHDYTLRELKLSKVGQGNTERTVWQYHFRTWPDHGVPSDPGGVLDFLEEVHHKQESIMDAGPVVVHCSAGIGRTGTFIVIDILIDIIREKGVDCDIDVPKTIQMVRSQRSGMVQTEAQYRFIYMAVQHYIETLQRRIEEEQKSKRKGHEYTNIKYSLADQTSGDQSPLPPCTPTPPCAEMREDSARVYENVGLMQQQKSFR
Assay: Measurement of SHP2 protein degradation in MV-4-11 cells (western blotting)
Type: cell-based
Set-up: endogenous in cells; host or cells: MV-4-11
Conditions: MV-4-11 cells, 24 hours
Experimental: Experimental Example 2: Measurement of SHP2 Protein Degradation in MV-4-11 Cells
MV-4-11 cells were treated with the synthesized Example compound, and the amount of SHP2 protein present in the cells was measured using western blotting detection. The protocol of the experiment conducted using MV-4-11 cells was as follows:
[Culture] MV-4-11 cells resuspended in IMDM MEDIUM (Hyclone, SH30228.01) containing 5% FBS (Hyclone, SV30207.02) and 1% Penicillin-streptomycin (Welgene, LS 202-02) were seeded at a density of 1×10^6/mL/well in a 12-well plate in an amount of 1 ml each.
[Compound treatment] The 12-well plate was treated as follows: Cells were treated with compounds at a final concentration of […] made by serial dilution of 10 mM stock with DMSO in 1/100 increments […]. After 24 hours, cells were harvested. For the negative control group, DMSO diluted 1/100 to the media (3 mL DMSO+297 mL media) was added.
[Harvest] Each well was collected in a 1.5 mL microtube by pipetting with a 1 mL pipette and centrifuged (500 g, 5 min, 4° C.). The supernatant was removed. It was washed with PBS, and then centrifuged again (500 g, 5 min, 4° C.). Thereafter, the supernatant was removed to prepare a pellet.
[Cell Lysis and Sample preparation] Lysis buffer was prepared as follows: […] of RIPA buffer (Biosesang, RC2038-050-00)+0.5 mM PMSF (SIGMA, P7626)+1× Protease/Phosphatase Inhibitor (Cell signaling, 5872S) per well was added and placed on ice for 30 minutes (vortexing at 0 and 30 minutes, respectively). After sonication process (10 seconds pulse, 30 seconds rest, 5 cycles, 70% amplification), centrifugation (15000 g, 15 min, 4° C.) was performed, and then only the supernatant was taken and transferred to a microtube. The sample was diluted ¼ with RIPA buffer in a 96-well plate, and mixed with A:B=50:1 of the BCA Protein Assay Kit (iNtRON, 21071). […] each of the mixture was left at 37° C. for 30 minutes, and cooled for 10 minutes. Then, absorbance was measured at 562 nm with the SYNERGY H1 microplate reader from BioTek. After making a sample by quantifying the protein with the measured value, boiling was performed at 70° C. for 10 minutes. At this time, the sample buffer used was a mixture of NuPAGE or Bolt 4× sample buffer (Invitrogen) and each 10× sample reducing agent according to the gel to be used, and RIPA buffer was used for protein dilution.
[Western blotting detection method] The same amount of sample was loaded on NuPAGE or Bolt Bis-tris 4-12% gradient gel and run (200 V, 35 minutes). It was transferred to 0.2 mm NC membrane with Trans-blot Turbo (BIO-RAD) (1.3 A constant, 25 V limit, 15 minutes). Blocking was performed at room temperature for 1 hour with Skim milk or Intercept Blocking Buffer (LI-COR, 927-60001):0.1% TBST=1:1. Anti-SHPTP2 Mouse (1:500 in 2% BSA/0.2% TBST, size: 70 kDa, Santacruz sc-7384) was incubated overnight at 4° C., and Anti-GAPDH Rabbit (1:2,000 in 2% BSA/0.2% TBST, size: 37 kDa, CST #2118) was incubated at room temperature for 1 hour 30 minutes or 3 hours. It was washed 3 times for 5 minutes each with 0.2% TBST washing buffer. Secondary antibody Anti-Rabbit IgG (1:5,000 in 2% BSA/0.2% TBST, CST), IRDye® 680RD Goat anti-Rabbit IgG Secondary Antibody (1:10,000 in 2% BSA/0.2% TBST, LI-COR 926-68071) were added and incubated for 45 minutes on a rocker at room temperature. It was washed 5 times for 5 minutes each with 0.2% TBST washing buffer and detected with LI-COR's Odyssey. At this time, SHPTP2 was detected using SuperSignal West Pico PLUS Chemiluminescent Substrate, and house-keeping genes were also detected.
In the results of Table 4 below, Compounds 1-7, 13-19, and 21-26 are results in KYSE-520 cells, and the others are results in MV-4-11 cells.

Row | SHP2 degradation (%) 10 nM [%] | SHP2 degradation (%) 100 nM [%] | SHP2 degradation (%) 1000 nM [%] | Compound
1 | 84 | 95.5 | – | Cc1ncsc1-c1ccc(CNC(=O)[C@@H]2C[C@@H](O)CN2C(=O)[C@@H](NC(=O)C2(F)CC2)C(C)(C)C)c(OCC2CCN(C(=O)CC(=O)Nc3cccc(Sc4cnc(N5CCC(C)(N)CC5)cn4)c3Cl)CC2)c1 [Example 29, (2S,4R)—N-(2-((1-(3-((3-((5-(4-amino-4-methylpiperidin-1-yl)pyrazin-2-yl)thio)-2-chlorophenyl)amino)-3-oxopropanoyl)piperidin-4-yl)methoxy)-4-(4-methylthiazol-5-yl)benzyl)-1-((S)-2-(1-fluorocyclopropane-1-carboxamido)-3,3-dimethylbutanoyl)-4-hydroxypyrrolidine-2-carboxamide]
2 | 76 | 97 | 97.5 | Cc1ncsc1-c1ccc(CNC(=O)[C@@H]2C[C@@H](O)CN2C(=O)[C@@H](NC(=O)C2(F)CC2)C(C)(C)C)c(OCC2CCN(C(=O)CC(=O)Nc3cccc(Sc4cnc(N5CCC(C)(CN)CC5)cn4)c3Cl)CC2)c1 [Example 31, (2S,4R)—N-(2-((1-(3-((3-((5-(4-(aminomethyl)-4-methylpiperidin-1-yl)pyrazin-2-yl)thio)-2-chlorophenyl)amino)-3-oxopropanoyl)piperidin-4-yl)methoxy)-4-(4-methylthiazol-5-yl)benzyl)-1-((S)-2-(1-fluorocyclopropane-1-carboxamido)-3,3-dimethylbutanoyl)-4-hydroxypyrrolidine-2-carboxamide]
3 | 77 | 93.5 | 94 | Cc1ncsc1-c1ccc(CNC(=O)[C@@H]2C[C@@H](O)CN2C(=O)[C@@H](NC(=O)C2(F)CC2)C(C)(C)C)c(OCCC2CCN(C(=O)CC(=O)Nc3cccc(Sc4cnc(N5CCC(C)(N)CC5)cn4)c3Cl)CC2)c1 [Example 34, (2S,4R)—N-(2-(2-(1-(3-((3-((5-(4-amino-4-methylpiperidin-1-yl)pyrazin-2-yl)thio)-2-chlorophenyl)amino)-3-oxopropanoyl)piperidin-4-yl)ethoxy)-4-(4-methylthiazol-5-yl)benzyl)-1-((S)-2-(1-fluorocyclopropane-1-carboxamido)-3,3-dimethylbutanoyl)-4-hydroxypyrrolidine-2-carboxamide]
4 | 83.0 | 93.5 | 93.5 | Cc1ncsc1-c1ccc(CNC(=O)[C@@H]2C[C@@H](O)CN2C(=O)[C@@H](NC(=O)C2(F)CC2)C(C)(C)C)c(OCCC2CCN(C(=O)CC(=O)Nc3cccc(Sc4cnc(N5CCC(C)(CN)CC5)cn4)c3Cl)CC2)c1 [Example 36, (2S,4R)—N-(2-(2-(1-(3-((3-((5-(4-(aminomethyl)-4-methylpiperidin-1-yl)pyrazin-2-yl)thio)-2-chlorophenyl)amino)-3-oxopropanoyl)piperidin-4-yl)ethoxy)-4-(4-methylthiazol-5-yl)benzyl)-1-((S)-2-(1-fluorocyclopropane-1-carboxamido)-3,3-dimethylbutanoyl)-4-hydroxypyrrolidine-2-carboxamide]

Further lines, the compound ahead of its results:

Row | Compound | SHP2 degradation (%) 10 nM [%] | SHP2 degradation (%) 100 nM [%] | SHP2 degradation (%) 1000 nM [%]
5 | Cc1ncsc1-c1ccc(CNC(=O)[C@@H]2C[C@@H](O)CN2C(=O)[C@@H](NC(=O)C2(F)CC2)C(C)(C)C)c(OCC2CCN(C(=O)CC(=O)Nc3cccc(Sc4ncc(N5CCC(C)(N)CC5)nc4N)c3Cl)CC2)c1 [Example 30, (2S,4R)—N-(2-((1-(3-((3-((3-amino-5-(4-amino-4-methylpiperidin-1-yl)pyrazin-2-yl)thio)-2-chlorophenyl)amino)-3-oxopropanoyl)piperidin-4-yl)methoxy)-4-(4-methylthiazol-5-yl)benzyl)-1-((S)-2-(1-fluorocyclopropane-1-carboxamido)-3,3-dimethylbutanoyl)-4-hydroxypyrrolidine-2-carboxamide] | 71.5 | 95.5 | –
6 | Cc1ncsc1-c1ccc(CNC(=O)[C@@H]2C[C@@H](O)CN2C(=O)[C@@H](NC(=O)C2(F)CC2)C(C)(C)C)c(OCC2CCN(C(=O)CC(=O)Nc3cccc(Sc4ncc(N5CCC(C)(CN)CC5)nc4N)c3Cl)CC2)c1 [Example 32, (2S,4R)—N-(2-((1-(3-((3-((3-amino-5-(4-(aminomethyl)-4-methylpiperidin-1-yl)pyrazin-2-yl)thio)-2-chlorophenyl)amino)-3-oxopropanoyl)piperidin-4-yl)methoxy)-4-(4-methylthiazol-5-yl)benzyl)-1-((S)-2-(1-fluorocyclopropane-1-carboxamido)-3,3-dimethylbutanoyl)-4-hydroxypyrrolidine-2-carboxamide] | 75 | 95 | –
7 | CC(=O)N[C@H](C(=O)N1C[C@H](O)C[C@H]1C(=O)NCc1ccc(-c2scnc2C)cc1OCC1CCN(C(=O)CC(=O)Nc2cccc(Sc3cnc(N4CCC(C)(CN)CC4)cn3)c2Cl)CC1)C(C)(C)C [Example 33, (2S,4R)-1-((S)-2-acetamido-3,3-dimethylbutanoyl)-N-(2-((1-(3-((3-((5-(4-(aminomethyl)-4-methylpiperidin-1-yl)pyrazin-2-yl)thio)-2-chlorophenyl)amino)-3-oxopropanoyl)piperidin-4-yl)methoxy)-4-(4-methylthiazol-5-yl)benzyl)-4-hydroxypyrrolidine-2-carboxamide] | 90 | 96.5 | –
8 | Cc1ncsc1-c1ccc(CNC(=O)[C@@H]2C[C@@H](O)CN2C(=O)[C@@H](NC(=O)C2(F)CC2)C(C)(C)C)c(OCCC2CCN(C(=O)CC(=O)Nc3cccc(Sc4ncc(N5CCC(C)(N)CC5)nc4N)c3Cl)CC2)c1 [Example 35, (2S,4R)—N-(2-(2-(1-(3-((3-((3-amino-5-(4-amino-4-methylpiperidin-1-yl)pyrazin-2-yl)thio)-2-chlorophenyl)amino)-3-oxopropanoyl)piperidin-4-yl)ethoxy)-4-(4-methylthiazol-5-yl)benzyl)-1-((S)-2-(1-fluorocyclopropane-1-carboxamido)-3,3-dimethylbutanoyl)-4-hydroxypyrrolidine-2-carboxamide] | 74 | 93 | 93
